Earlier results on 4 compounds are cited in US20110262453A1, “Markers for Assessing the Susceptibility of Cancer to IGF-1R Treatment” (priority 2008, published 2011).

Data set [1] deals with IGF-1R over IR (Homo sapiens, UniProt P08069).
Data set [2] concerns the target IGF-1R (Homo sapiens, UniProt P08069).
Data set [3] relates to cultured IGF-1R-positive tumor cells.
For data set [4], the system named is xenografted and allografted mice.
Data set [5] relates to rodents.

IGF-1R over IR, sequence (P08069 31-1367): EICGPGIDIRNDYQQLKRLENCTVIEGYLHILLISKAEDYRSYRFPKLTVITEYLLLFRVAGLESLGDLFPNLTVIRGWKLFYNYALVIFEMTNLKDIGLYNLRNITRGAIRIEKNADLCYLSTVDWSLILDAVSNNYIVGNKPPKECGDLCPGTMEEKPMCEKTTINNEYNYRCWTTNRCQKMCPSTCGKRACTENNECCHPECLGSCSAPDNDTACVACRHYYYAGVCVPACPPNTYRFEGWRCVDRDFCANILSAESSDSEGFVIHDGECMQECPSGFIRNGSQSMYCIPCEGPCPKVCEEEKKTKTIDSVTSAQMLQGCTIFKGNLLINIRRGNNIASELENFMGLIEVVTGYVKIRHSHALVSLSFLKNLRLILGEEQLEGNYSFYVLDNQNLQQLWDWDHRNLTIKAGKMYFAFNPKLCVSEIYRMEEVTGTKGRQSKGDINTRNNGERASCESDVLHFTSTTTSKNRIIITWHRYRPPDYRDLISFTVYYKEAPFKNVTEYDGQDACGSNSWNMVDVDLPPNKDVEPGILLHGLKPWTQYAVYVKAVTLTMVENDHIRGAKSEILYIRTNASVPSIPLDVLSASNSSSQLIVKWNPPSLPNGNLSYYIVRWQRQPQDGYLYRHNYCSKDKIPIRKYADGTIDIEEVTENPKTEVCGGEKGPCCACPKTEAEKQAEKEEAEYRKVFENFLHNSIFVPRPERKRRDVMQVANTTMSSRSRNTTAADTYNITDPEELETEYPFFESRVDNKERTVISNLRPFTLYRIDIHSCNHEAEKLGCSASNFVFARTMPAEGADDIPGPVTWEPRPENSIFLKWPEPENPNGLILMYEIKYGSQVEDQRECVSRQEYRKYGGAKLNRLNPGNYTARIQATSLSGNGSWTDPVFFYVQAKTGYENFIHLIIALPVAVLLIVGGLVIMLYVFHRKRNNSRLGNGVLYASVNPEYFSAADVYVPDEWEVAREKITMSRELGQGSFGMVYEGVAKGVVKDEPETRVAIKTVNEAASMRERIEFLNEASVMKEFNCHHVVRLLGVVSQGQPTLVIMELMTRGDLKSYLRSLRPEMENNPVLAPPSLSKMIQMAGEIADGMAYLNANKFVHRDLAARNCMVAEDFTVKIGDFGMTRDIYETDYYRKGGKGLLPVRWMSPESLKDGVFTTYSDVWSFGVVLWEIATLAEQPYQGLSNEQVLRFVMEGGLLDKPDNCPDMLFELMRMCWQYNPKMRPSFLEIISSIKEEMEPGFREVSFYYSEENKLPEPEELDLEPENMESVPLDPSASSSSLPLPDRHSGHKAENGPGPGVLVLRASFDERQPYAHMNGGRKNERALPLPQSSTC
IGF-1R, sequence (P08069 31-1367): as above

Take `CC(C)(C)c1cc(C=C(C#N)C#N)cc(Br)c1O` [AG1024]: the “selectivity towards IGF-1R over IR (in words)” value in data set [1] was “some selectivity”.

As usually defined, the LD50 is the dose expected to kill half of the subjects tested. Turning to `COc1cc([C@@H]2c3cc4c(cc3[C@H](O)[C@H]3COC(=O)[C@@H]23)OCO4)cc(OC)c1OC` [PPP, picropodophyllin], the IGF-1R activity result in data set [2] is “efficiently blocked IGF-1R activity”. In addition, in data set [3], the apoptosis result is on record as “induced apoptosis”; the “pAkt and phosphorylated extracellular signal regulated kinase 1 and 2 (pErk1/2)” value is reported as “reduced”. Further, in data set [4], the tumor regression entry is recorded as “complete tumor regression”. For the same compound, the LD50 in data set [5] is more than 500 mg/kg.

On to `N#C/C(=C\c1ccc(O)c(O)c1)C(=O)c1ccc(O)c(O)c1` [AG538], for which, in data set [1], the “selectivity towards IGF-1R over IR (in words)” value is “some selectivity”.

For the compound `Nc1ncnc2c1c(-c1cccc(OCc3ccccc3)c1)cn2C1CC(CN2CCC2)C1` (centres unmarked) [NVP-AEW541], the “selectivity towards IGF-1R over IR” value in data set [1] is on record as 100 fold.
